Measurements: US12208095B2, “Methods of treating breast cancer with tetrahydronaphthalene derivatives as estrogen receptor degraders” (Arvinas Operations, Inc., priority 2019, dated 2025)

System: MCF7 xenograft
Assay: tumor growth inhibition in orthotopic MCF7/estradiol xenograft model
Assay type: in vivo, NOD/SCID mice
Experimental: Species: NOD/SCID female mice (Charles River, 6-7 weeks old upon arrival).
Animal handling: Axial mammary fat pad implantation of 5×10^6 MCF7 cells/200 per mouse (17β-estradiol 0.36 mg 90-day pellet implanted day before).
Tumor volumes were evaluated twice per week for twenty-eight days.
Sampling: Tumors were measured twice weekly. Terminal sacrifice was ˜18 hr after last dose; tumors were harvested, divided, and flash frozen. ERα levels were determined by immunoblotting.
Tumor volume calculation: Tumor Volume=(width×width×length)/2, where all measurements are in mm and the tumor volume is in mm^3.
Tumor Growth Inhibition (TGI) calculation: TGI (%)
NOD/SCID female mice (Charles River, 6-7 weeks old upon arrival) received implantation of 5×10^6 MCF7 cells/200 μL per mouse in axial mammary fat pad (17β-estradiol 0.36 mg 90-day pellet implanted day before). Compound administration was initiated once the tumors reached 200 mm^3. Diet was supplemented with peanut butter to help maintain body weights.
The ratio of Tween 80 to PEG-400 is 0.02 g Tween 80 to 1 ml PEG-400. PEG-400 is added to a pre-aliquoted volume of Tween 80. • For fulvestrant: 10% w/v Ethanol, 10% w/v Benzyl Alcohol, and 15% w/v Benzyl Benzoate as co-solvents and made up to 100% w/v with Castor Oil (‘EBB/Castor Oil’) • For palbociclib: 50 mM sodium lactate, pH 4.0 (‘Sodium lactate’)
Sampling: tumors were measured twice weekly. Terminal sacrifice was ˜18 hr after last dose; tumors were harvested, divided, and flash frozen. ERα levels were determined by immunoblotting.

O=C1CC[C@H](N2Cc3cc(N4CCN(CC5CCN(c6ccc([C@@H]7c8ccc(O)cc8CC[C@@H]7c7ccccc7)cc6)CC5)CC4)ccc3C2=O)C(=O)N1 [Compound (I-c), (3S)-3-[5-[4-[[1-[4-[(1R, 2S)-6-hydroxy-2-phenyl-tetralin-1-yl]phenyl]-4-piperidyl]methyl]piperazin-1-yl]-1-oxo-isoindolin-2-yl]piperidine-2,6-dione]
Day 0 Tumor volume (mean ± SD) (3 mg/kg oral QDx28, n = 10): 217 ± 67 mm^3
Day 0 Tumor volume (mean ± SD) (10 mg/kg oral QDx28, n = 9): 218 ± 65 mm^3
Day 0 Tumor volume (mean ± SD) (30 mg/kg oral QDx28, n = 10): 217 ± 66 mm^3
% TGI (MCF7/estradiol, 30 mg/kg, summary over studies): 105-124%
Day 0 Tumor volume (mean ± SD) (combination study: Compound (I-c) 30 mg/kg oral QDx28, palbociclib 60 mg/kg oral QDx28, fulvestrant 200 mg/kg SC, n = 10): 199 ± 55 mm^3
